Like-named read-outs stand apart in the source and are kept apart here.
Legend:
Type in all cases: cell-based
[1] = system: MIA PaCa-2 cells (KRAS G12C mutant); assay: MIA PaCa-2 cell anti-proliferation (CellTiter-Glo); conditions: Homo sapiens
In short: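 Viable-cell luminescence (CellTiter-Glo, ≥30 min at 25 °C) measured after a 3-day, 37 °C exposure to compounds at 9 points, 4-fold spaced, in DMEM containing 10% FBS plus 2.5% horse serum. IC50 derived versus no-inhibitor wells.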

[2] = system: MIA PaCa-2-AMGR drug-resistant cell line; assay: MIA PaCa-2-AMGR drug-resistant cell proliferation inhibitory activity test; conditions: 72 h, MIA PaCa-2-AMGR drug-resistant cells, 3 days incubation, CellTiter-Glo
In short: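 Viability was read by CellTiter-Glo luminescence after 3 days of compound exposure (8 points, 5-fold serial dilution), with IC50 derived relative to untreated control. Cells: AMG510-resistant MIA PaCa-2 (selected stepwise to 1 μM AMG510), 4×10^3/well, DMEM + 10% FBS + 2.5% horse serum, 37° C.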

[3] = system: NCI-H358-AMGR drug-resistant cell line; assay: NCI-H358-AMGR drug-resistant cell proliferation inhibitory activity test; conditions: 72 h; NCI-H358-AMGR drug-resistant cells, 3 days incubation, CellTiter-Glo
In short: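 Luminescent CellTiter-Glo read-out after 3-day, 37° C compound exposure (8 points, 5-fold series) of AMG510-resistant NCI-H358 cells plated at 4×10^3 per well.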

[4] = 72 h, MIA Paca-2 cells, 3 days, Table 7, read-out: MIA PaCa-2 (IC50)

Row | Structure (SMILES) | IC50 ([1]; MIA PaCa-2, 72 h, read-out: MIA PaCa-2 (IC50, nM)) | IC50 [2] | IC50 [3] | IC50 [1, 4]
1 | COc1ncc(-c2ccc3ncnc(N4CCN(C(=O)/C=C/C(C)=O)CC4)c3c2)cc1NS(=O)(=O)c1c(F)cccc1C#N [Example 122, (E)-2-cyano-6-fluoro-N-(2-methoxy-5-(4-(4-(4-oxopent-2-enoyl)piperazin-1-yl)quinazolin-6-yl)pyridin-3-yl)benzenesulfonamide] | 106 nM | 273 nM | 128 nM | 
2 | COc1ncc(-c2ccc3ncnc(N4CCN(C(=O)/C=C/C(C)=O)CC4)c3c2)cc1NS(=O)(=O)c1ccc(Cl)cc1F [Example 177, (E)-4-chloro-2-fluoro-N-(2-methoxy-5-(4-(4-(4-oxopent-2-enoyl)piperazin-1-yl)quinazolin-6-yl)pyridin-3-yl)benzene-sulfonamide] |  | 36.6 nM | 48.9 nM | 25.9 nM
3 | COc1ccc(Cl)c(S(=O)(=O)Nc2cc(-c3ccc4ncnc(N5CCN(C(=O)/C=C/C(C)=O)CC5)c4c3)cnc2OC)c1 [Example 184, (E)-2-chloro-5-methoxy-N-(2-methoxy-5-(4-(4-(4-oxopent-2-enoyl)piperazin-1-yl)quinazolin-6-yl)pyridin-3-yl)benzene-sulfonamide] |  | 176 nM | 135 nM | 60.2 nM
4 | COc1ncc(-c2ccc3ncnc(N4CCN(C(=O)/C=C/C(C)=O)CC4)c3c2)cc1NS(=O)(=O)c1ccc(F)cc1F [Example 6, (E)-2,4-difluoro-N-(2-methoxy-5-(4-(4-(4-oxopent-2-enoyl)piperazin-1-yl)quinazoline-6-yl)pyridin-3-yl)benzenesulfonamide] |  | 49.2 nM | 15.6 nM | 17.1 nM
5 | CCOc1ncc(-c2ccc3ncnc(N4CCN(C(=O)/C=C/C(C)=O)CC4)c3c2)cc1NS(=O)(=O)c1ccc(F)cc1F [Example 109, (E)-N-(2-ethoxy-5-(4-(4-(4-oxopent-2-enoyl)piperazin-1-yl)quinazolin-6-yl)pyridin-3-yl)-2,4-difluorobenzenesulfonamide] |  | 111 nM | 113 nM | 94.2 nM
6 | COc1ncc(-c2ccc3ncnc(N4CCN(C(=O)/C=C/C(C)=O)C[C@@H]4C)c3c2)cc1NS(=O)(=O)c1ccc(F)cc1Cl [Example 174, (S,E)-2-chloro-4-fluoro-N-(2-methoxy-5-(4-(2-methyl-4-(4-oxopent-2-enoyl)piperazin-1-yl)quinazolin-6-yl)pyridin-3-yl)benzene-sulfonamide] |  | 26.3 nM | 28.6 nM | 15.6 nM
7 | COc1ncc(-c2ccc3ncnc(N4CCC5(CC=CC5=O)CC4)c3c2)cc1NS(=O)(=O)c1ccc(F)cc1F [Example 70, 2,4-difluoro-N-(2-methoxy-5-(4-(1-oxo-8-azaspiro[4,5]dec-2-en-8-yl)quinazolin-6-yl)pyridin-3-yl)benzenesulfonamide] |  | 139 nM | 74.5 nM | 40.1 nM
8 | COc1ncc(-c2ccc3ncnc(C4CCN(C(=O)/C=C/C(C)=O)CC4)c3c2)cc1NS(=O)(=O)c1ccccc1F [Example 204, (E)-2-fluoro-N-(2-methoxy-5-(4-(1-(4-oxopent-2-enoyl)piperidin-4-yl)quinazolin-6-yl)pyridin-3-yl)benzenesulfonamide] |  | 45.8 nM | 47.1 nM | 115 nM
9 | COc1ncc(-c2ccc3ncnc(N4C[C@@H](C)N(C(=O)/C=C/C(C)=O)C[C@@H]4C)c3c2)cc1NS(=O)(=O)c1ccc(F)cc1F [Example 15, N-(5-(4-((2S,5R)-2,5-dimethyl-4-((E)-4-oxopent-2-enoyl)piperazin-1-yl)quinazolin-6-yl)-2-methoxypyridin-3-yl)-2,4-difluorobenzenesulfonamide] |  | 243 nM | 62.1 nM | 71.1 nM
10 | COc1ncc(-c2ccc3ncnc(N4CCN(C(=O)/C=C/C(C)=O)CC4)c3n2)cc1NS(=O)(=O)c1c(F)cncc1F [Example 210, (E)-3,5-difluoro-N-(2-methoxy-5-(4-(4-(4-oxopent-2-enoyl)piperazin-1-yl)pyrido[3,2-d]pyrimidin-6-yl)pyridin-3-yl)pyridine-4-sulfonamide] |  | 97.4 nM | 287 nM | 47.7 nM
11 | COc1ncc(-c2ccc3ncnc(N4CCN(C(=O)/C=C/C(C)=O)C[C@@H]4C)c3c2)cc1NS(=O)(=O)c1ccc(F)cc1 [Example 153, (S,E)-4-fluoro-N-(2-methoxy-5-(4-(2-methyl-4-(4-oxopent-2-enoyl)piperazin-1-yl)quinazolin-6-yl)pyridin-3-yl)benzenesulfonamide] |  | 49.7 nM | 100 nM | 56.7 nM
12 | COc1ncc(-c2ccc3ncnc(N4CCN(C(=O)/C=C/C(C)=O)CC4)c3n2)cc1NS(=O)(=O)c1cc(F)ccc1F [Example 217, (E)-2,5-difluoro-N-(2-methoxy-5-(4-(4-(4-oxopent-2-enoyl)piperazin-1-yl)pyrido[3,2-d]pyrimidin-6-yl)pyridin-3-yl) benzene-sulfonamide] |  | 21.4 nM | 32.1 nM | 21.1 nM
13 | COc1ncc(-c2ccc3ncnc(N4CCN(C(=O)/C=C/C(C)=O)CC4)c3c2)cc1NS(=O)(=O)c1ccc(F)cc1 [Example 92, (E)-4-fluoro-N-(2-methoxy-5-(4-(4-(4-oxopent-2-enoyl)piperazin-1-yl)quinazolin-6-yl)pyridin-3-yl)benzenesulfonamide] |  | 56.9 nM | 111 nM | 31 nM
14 | COc1ncc(-c2ccc3ncnc(N4CC5CCC(C4)N5C(=O)/C=C/C(C)=O)c3c2)cc1NS(=O)(=O)c1sc(C)nc1C [Example 176, N-(2-methoxy-5-(4-(8-((E)-4-oxopent-2-enoyl)-3,8-diazabicyclo [3.2.1]octan-3-yl)quinazolin-6-yl)pyridin-3-yl)-2,4-dimethyl-thiazole-5-sulfonamide] |  | 48.6 nM | 76.1 nM | 29.3 nM
15 | COc1ncc(-c2ccc3ncnc(N4CCN(C(=O)/C=C/C(C)=O)CC4)c3c2)cc1NS(=O)(=O)c1c(F)cncc1F [Example 102, (E)-3,5-difluoro-N-(2-methoxy-5-(4-(4-(4-oxopent-2-enoyl)piperazin-1-yl)quinazolin-6-yl)pyridin-3-yl)pyridine-4-sulfonamide] |  | 908 nM | 516 nM | 142 nM
16 | COc1ncc(-c2ccc3ncnc(N4CCN(C(=O)/C=C/C(C)=O)C[C@@H]4C)c3c2)cc1NS(=O)(=O)c1ccccc1F [Example 152, (S,E)-2-fluoro-N-(2-methoxy-5-(4-(2-methyl-4-(4-oxopent-2-enoyl)piperazin-1-yl)quinazolin-6-yl)pyridin-3-yl)benzenesulfonamide] |  | 52.1 nM | 62.1 nM | 68.8 nM
17 | COc1ncc(-c2ccc3ncnc(C4CCN(C(=O)/C=C/C(C)=O)CC4)c3n2)cc1NS(=O)(=O)c1c(F)cccc1F [Example 233, (E)-2,6-difluoro-N-(2-methoxy-5-(4-(1-(4-oxopent-2-enoyl)piperidin-4-yl)pyrido[3,2-d]pyrimidin-6-yl)pyridin-3-yl)benzenesulfonamide] |  | 16.7 nM | 52 nM | 14.2 nM
18 | CC(=O)/C=C/C(=O)N1CCN(c2ncnc3ccc(-c4cnc(OCC(F)(F)F)c(NS(=O)(=O)c5ccc(F)cc5F)c4)cc23)CC1 [Example 159, (E)-2,4-difluoro-N-(5-(4-(4-(4-oxopent-2-enoyl)piperazin-1-yl)quinazolin-6-yl)-2-(2,2,2-trifluoroethoxy)pyridin-3-yl)benzenesulfonamide] |  | 226 nM | 361 nM | 357 nM
19 | COc1ncc(-c2ccc3ncnc(N4CCC5(CC4)CN(C(=O)/C=C/C(C)=O)C5)c3c2)cc1NS(=O)(=O)c1c(F)cc(F)cc1F [Example 101, (E)-2,4,6-trifluoro-N-(2-methoxy-5-(4-(2-(4-oxopent-2-enoyl)-2,7-diazaspiro[3.5]nonan-7-yl)quinazolin-6-yl)pyridin-3-yl)benzenesulfonamide] |  | 35.9 nM | 28.3 nM | 11.6 nM
20 | COc1ncc(-c2ccc3ncnc(N4CCN(C(=O)/C=C/C(C)=O)CC4)c3c2)cc1NS(=O)(=O)c1c(F)cc(F)cc1F [Example 99, (E)-2,4,6-trifluoro-N-(2-methoxy-5-(4-(4-(4-oxopent-2-enoyl)piperazin-1-yl)quinazolin-6-yl)pyridin-3-yl)benzenesulfonamide] |  | 72.9 nM | 65.2 nM | 16.7 nM
21 | COc1ncc(-c2ccc3ncnc(N4CCN(C(=O)/C=C/C(C)=O)CC4)c3c2)cc1NS(=O)(=O)c1ccc(C(F)(F)F)cc1F [Example 124, (E)-2-fluoro-N-(2-methoxy-5-(4-(4-(4-oxopent-2-enoyl)piperazin-1-yl)quinazolin-6-yl)pyridin-3-yl)-4-(trifluoromethyl)benzenesulfonamide] |  | 83.9 nM | 85.5 nM | 58.4 nM
22 | COc1ncc(-c2ccc3ncnc(N4C[C@@H](C)N(C(=O)/C=C/C(C)=O)C[C@@H]4C)c3c2)cc1NS(=O)(=O)c1c(F)cccc1F [Example 51, N-(5-(4-((2S,5R)-2,5-dimethyl-4-((E)-4-oxopent-2-enoyl)piperazin-1-yl)quinazolin-6-yl)-2-methoxypyridin-3-yl)-2,6-difluorobenzene-sulfonamide] |  | 181 nM | 61 nM | 50.7 nM
